For the assay, the target named is soluble human BACE1 catalytic domain (Homo sapiens (Human), UniProt P56817). Kind of assay: BACE1 HTRF FRET Assay.
The mark [1] stands for this setting: read-out: BACE1 Ki, Ki calculated from IC50 using the Cheng-Prusoff equation.
The mark [2] stands for this setting: read-out: BACE1 inhibition, % Inh. at 10 μM, at 10 μM.
Setting [3] is: read-out: BACE1 % Inh. at 10 μM, at 10 μM.

Where two headings read alike, the source gives them in different places.

Here are results for 65 compounds from patent US9499502B2, “5-substituted iminothiazines and their mono- and dioxides as BACE inhibitors, compositions, and their use” (Merck Sharp & Dohme Corp., priority 2011, dated 2016).

soluble human BACE1 catalytic domain, sequence (P56817 75-416): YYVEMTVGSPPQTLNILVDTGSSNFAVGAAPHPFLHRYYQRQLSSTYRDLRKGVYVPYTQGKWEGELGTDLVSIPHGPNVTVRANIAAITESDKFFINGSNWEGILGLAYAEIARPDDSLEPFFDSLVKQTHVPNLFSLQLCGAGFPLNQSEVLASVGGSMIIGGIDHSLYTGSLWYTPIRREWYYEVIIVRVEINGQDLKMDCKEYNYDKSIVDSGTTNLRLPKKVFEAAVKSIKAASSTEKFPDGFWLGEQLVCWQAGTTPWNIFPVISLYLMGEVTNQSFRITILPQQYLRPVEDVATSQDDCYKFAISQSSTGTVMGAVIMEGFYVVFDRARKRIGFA

Broadly, the Ki is the equilibrium dissociation constant of an inhibitor or competing ligand from its target. In the case of `Cc1nnc(-c2ccc(F)c(-c3cc(F)c([C@]4(C)CS(=O)(=O)C(C)(C)C(=N)N4)s3)c2)o1` [Example 27ax], the Ki (read-out: BACE1 Ki) came out at 858 nM.

On to `COc1cccc([C@@]2(C)C(=N)N[C@](C)(c3ccc(F)cc3F)CS2(=O)=O)c1` [Example 32f-a], for which the Ki (read-out: BACE1 Ki) stood at 1210 nM.

Regarding `COc1ccc(C(=O)Nc2ccc(F)c([C@]3(C)CS(=O)(=O)C(C)(C)C(=N)N3)c2)nc1` [Example 9a], the Ki under setting [1] is 4.6 nM.

Turning to `CC1(C)C(=N)N[C@](C)(c2c(F)cccc2F)CS1(=O)=O` [Entry 11], the Ki (read-out: BACE1 inhibition, Ki) was 1300 nM.

As for `C[C@@]1(c2sc(-c3nnc(-c4ccc(Cl)cc4)o3)cc2F)CS(=O)(=O)[C@@](C)(c2ccccn2)C(=N)N1` [Example 27bz-a], the inhibition constant (Ki) (read-out: BACE1 Ki) was 51 nM.

Turning to `CC1(C)C(=N)N[C@](C)(c2cc([N+](=O)[O-])ccc2F)CS1(=O)=O` [Example 2-1], the inhibition at 10 µM under setting [2] was 45%.

Take `CC1(C)C(=N)N[C@](C)(c2sc(-c3ccnc(C4CC4)c3)cc2F)CS1(=O)=O` [Example 27av]: where the note is “read-out: BACE1 Ki”, the inhibition constant (Ki) amounted to 663 nM.

Turning to `Cc1nc2cc(CC3(C)C(=N)N[C@](C)(c4cc(F)ccc4F)CS3(=O)=O)ccc2s1` (stereo partly drawn) [Example 32-b], the “BACE1 inhibition, % Inh. at 10 μM” value (at 10 μM) worked out at 7% Inh at 10 μM.

For the compound `C[C@@]1(c2ccccn2)C(=N)N[C@](C)(c2sc(-c3cccc(-c4nnco4)c3)cc2F)CS1(=O)=O` [Example 27bp-b], for the setting “read-out: BACE1 Ki”, the inhibition constant (Ki) came to 396 nM.

Turning to `C[C@@]1(c2cc(NC(=O)c3ccc(C(F)(F)F)cn3)ccc2F)CS(=O)(=O)[C@@](C)(C2CCC2)C(=N)N1` [Example 9dz-a], under setting [1], the Ki was 3.4 nM.

With `CC1(C)C(=N)N[C@](C)(c2cc(-c3cc(F)cc(-c4cnco4)c3)cs2)CS1(=O)=O` [Example 27am], the Ki (read-out: BACE1 Ki) was 80.6 nM.

`C[C@@]1(c2cc(F)ccc2F)CS(=O)(=O)[C@@](C)(c2cccc(O)c2)C(=N)N1` [Example 34c-a]: the Ki (read-out: BACE1 inhibition, Ki) came out at 1000 nM.

As for `C[C@]1(CC(F)(F)F)C(=N)N[C@](C)(c2sc(Br)cc2F)CS1(=O)=O` [Example 6F-3a], the Ki (read-out: BACE1 inhibition, Ki) came to 500 nM.

With `COc1cccc2cc(-c3ccc(F)c([C@]4(C)CS(=O)(=O)C(C)(C)C(=N)N4)n3)[nH]c12` [Example 16e], the inhibition at 10 µM under setting [3] worked out at 31%.

Regarding `CC1(C)C(=N)N[C@](C)(c2cc(NC(=O)C3CCC3)ccc2F)CS1(=O)=O` [Example 9aq], the Ki under setting [1] was 476 nM.

Regarding `C[C@@]1(c2cc(N)ccc2F)CS(=O)(=O)[C@@](C)(C2CCOCC2)C(=N)N1` [Entry 50], the inhibition constant Ki (read-out: BACE1 inhibition, Ki) was found to be 500 nM.

Consider `CC1(C)C(=N)N[C@](C)(c2sc(-c3cncc(C#N)c3)cc2F)CS1(=O)=O` [Example 27ap], for which, under “read-out: BACE1 Ki”, the Ki came to 102 nM.

With `COc1cncc(-c2cc(F)c([C@]3(C)CS(=O)(=O)C(C)(C)C(=N)N3)s2)n1` [Example 27au], the Ki (read-out: BACE1 Ki) came to 943 nM.

On to `CC1(C)C(=N)N[C@](C)(c2c(F)c(F)cc(NC(=O)c3ccc(F)cn3)c2F)CS1(=O)=O` [Example 9aa], for which, under setting [1], the Ki was 35.4 nM.

As to `C[C@@]1(c2cc(NC(=O)c3ccc(Cl)cn3)ccc2F)CS(=O)(=O)[C@](C)(CC2CC2)C(=N)N1` [Example 9di-b], the Ki under setting [1] is 15.6 nM.

As to `CC1(C)C(=N)N[C@](C)(c2cc(NC(=O)[C@H]3CCCO3)cc(F)c2F)CS1(=O)=O` [Example 9bm], the inhibitory constant (Ki) under setting [1] was 218 nM.

For the compound `CC1(C)C(=N)N[C@](C)(c2cc(NC(=O)c3cocn3)ccc2F)CS1(=O)=O` [Example 9ap], the inhibitory constant (Ki) under setting [1] is 39 nM.

Take `COc1cnc(C(=O)Nc2ccc(F)c([C@]3(C)CS(=O)(=O)C(C)(C)C(=N)N3)c2)c(F)c1` [Example 9d]: under setting [1], the Ki is 5.4 nM.

In the case of `C[C@@]1(c2cc(NC(=O)c3ccc(F)cn3)ccc2F)CS(=O)(=O)[C@@](C)(c2ccccn2)C(=N)N1` [Example 9cv-a], under setting [1], the Ki was 7.8 nM.

As for `COc1cnc(C(=O)Nc2ccc(F)c([C@]3(C)CS(=O)(=O)[C@@](C)(CC4CCOCC4)C(=N)N3)c2)cn1` [Example 9ct-a], the inhibitory constant (Ki) under setting [1] was 3.9 nM.

`COc1ccc(C(=O)Nc2ccc(F)c([C@]3(C)CS(=O)(=O)[C@@](C)(C(C)C)C(=N)N3)c2)nc1` [Example 9eb-a]: the Ki under setting [1] was 16.5 nM.

Turning to `COc1cnc(C(=O)Nc2ccc(F)c([C@]3(C)CS(=O)(=O)[C@@](C)(C4CCC4)C(=N)N3)c2)cn1` [Example 9dy-a], the inhibitory constant (Ki) under setting [1] was 7.5 nM.

As to `CC1(C)C(=N)N[C@](C)(c2sc(-c3cncc(-c4cnco4)c3)cc2Cl)CS1(=O)=O` [Example 27ac], the Ki under setting [1] was 22.3 nM.

Take `COc1ccc(C(=O)Nc2ccc(F)c([C@]3(C)CS(=O)(=O)[C@](C)(CC4CC4)C(=N)N3)c2)nc1` [Example 9dj-b]: the Ki under setting [1] is 26.9 nM.

Consider `CC1(C)C(=N)N[C@](C)(c2sc(-c3cccc(-c4nnco4)c3)cc2Cl)CS1(=O)=O` [Example 27b], for which the inhibition constant (Ki) under setting [1] is 8.2 nM.

Regarding `CC1(C)C(=N)N[C@](C)(c2cc(NC(=O)C(F)F)ccc2F)CS1(=O)=O` [Example 9au], under setting [1], the inhibitory constant (Ki) was 195 nM.

For `CC1(C(=O)Nc2cc(F)c(F)c([C@]3(C)CS(=O)(=O)C(C)(C)C(=N)N3)c2)COC1` [Example 9bp], the Ki under setting [1] was 1150 nM.

With `CC1(C)C(=N)N[C@](C)(c2cc(NC(=O)C3CCOCC3)ccc2F)CS1(=O)=O` [Example 9av], the inhibition constant Ki under setting [1] is 8580 nM.

As for `C[C@]1(CC2CCOCC2)C(=N)N[C@](C)(c2cc(N)ccc2F)CS1(=O)=O` [Entry 53], the inhibitory constant (Ki) (read-out: BACE1 inhibition, Ki) was 1300 nM.

In the case of `CC1(C)C(=N)N[C@](C)(c2sc(-c3csc4ccccc34)cc2Cl)CS1(=O)=O` [Example 27g], the Ki (read-out: BACE1 Ki) stood at 2030 nM.

For the compound `Cc1nnc(-c2cccc(-c3cc(F)c([C@]4(C)CS(=O)(=O)C(C)(C)C(=N)N4)s3)c2)o1` [Example 27ay], the Ki (read-out: BACE1 Ki) was 480 nM.

`CC1(C)C(=N)N[C@](C)(c2cc(NC(=O)c3cnc(C(F)(F)F)cn3)ccc2F)CS1(=O)=O` [Example 9e]: under setting [1], the Ki was 0.7 nM.

In the case of `CC1(C)C(=N)N[C@](C)(c2sc(C(=O)NCc3ccncn3)cc2Cl)CS1(=O)=O` [Example 22t], under setting [1], the Ki is 3130 nM.

Regarding `C[C@@]1(c2sc(-c3cccc(-c4nnco4)c3)cc2F)CS(=O)(=O)[C@@](C)(c2ccccn2)C(=N)N1` [Example 27bp-a], the inhibition constant Ki (read-out: BACE1 Ki) worked out at 17.8 nM.

`CC1(C)C(=N)N[C@](C)(c2sc(-c3cccc(-c4nnco4)c3)cc2F)CS1(=O)=O` [Example 27ar]: the Ki (read-out: BACE1 Ki) was found to be 11 nM.

`CC1(C)C(=N)N[C@](C)(c2sc(-c3cncc(-c4ncco4)c3)cc2Cl)CS1(=O)=O` [Example 27ad]: under setting [1], the Ki was 44.4 nM.

In the case of `CC(C)[C@]1(C)C(=N)N[C@](C)(c2cc(N)ccc2F)CS1(=O)=O` [Entry 28], the inhibition constant (Ki) (read-out: BACE1 inhibition, Ki) was determined as 7300 nM.

Turning to `CC1(C)C(=N)N[C@](C)(c2cc(NC(=O)Cc3ncccn3)cc(F)c2F)CS1(=O)=O` [Example 9bx], the inhibition constant Ki under setting [1] was 7070 nM.

Take `CC1(C)C(=N)N[C@](C)(c2sc(C(=O)Nc3cccc(F)n3)cc2Cl)CS1(=O)=O` [Example 21]: under setting [1], the Ki is 265 nM.

Turning to `CC[C@@]1(C)C(=N)N[C@](C)(c2cc(NC(=O)c3ccc(OC)cn3)ccc2F)CS1(=O)=O` [Example 9cm-a], the inhibition constant Ki under setting [1] was 5.6 nM.

Consider `C[C@@]1(c2cc(NC(=O)c3ccc(F)cn3)ccc2F)CS(=O)(=O)[C@@](C)(c2cc(C(F)(F)F)ccn2)C(=N)N1` [Example 9ed-b], for which the inhibition constant Ki under setting [1] was 15.1 nM.

With `CC1(C)C(=N)N[C@](C)(c2sc(C(=O)NCc3ccc(C(F)(F)F)cn3)cc2Cl)CS1(=O)=O` [Example 22p], under setting [1], the inhibitory constant (Ki) was 1800 nM.

Consider `C[C@]1(CC(F)(F)F)C(=N)N[C@](C)(c2cc(NC(=O)c3ccc(F)cn3)ccc2F)CS1(=O)=O` [Example 9dp-a], for which, under setting [1], the Ki is 6.2 nM.

Regarding `Cc1ccc(CNC(=O)c2cc(Cl)c([C@]3(C)CS(=O)(=O)C(C)(C)C(=N)N3)s2)nn1` [Example 22e], under setting [1], the Ki was 759 nM.

Take `CC1(C)C(=N)N[C@](C)(c2sc(-c3cnn4c3CCC4)cc2Cl)CS1(=O)=O` [Example 27m]: the Ki (read-out: BACE1 Ki) was determined as 5340 nM.

On to `CC1(C)C(=N)N[C@](C)(c2cc(NC(=O)C3CCC3)cc(F)c2F)CS1(=O)=O` [Example 9bt], for which the Ki under setting [1] was 721 nM.

`CN(C)CC(=O)Nc1ccc(F)c([C@]2(C)CS(=O)(=O)C(C)(C)C(=N)N2)c1` [Example 9ay]: under setting [3], the inhibition at 10 µM came to 23%.

With `COc1cccc([C@@]2(C)C(=N)N[C@](C)(c3cc(F)ccc3F)CS2(=O)=O)c1` [Example 32e-a], the Ki (read-out: BACE1 Ki) turned out to be 1100 nM.

Regarding `CC1(C(=O)Nc2ccc(F)c([C@]3(C)CS(=O)(=O)C(C)(C)C(=N)N3)c2)COC1` [Example 9af], the Ki under setting [1] was 739 nM.

With `CC1(C)C(=N)N[C@](C)(c2cc(NC(=O)CC(F)(F)F)cc(F)c2F)CS1(=O)=O` [Example 9bc], under setting [1], the Ki is 703 nM.

As for `CC1(C)C(=N)N[C@](C)(c2cc(NC(=O)c3ncc(F)cc3F)ccc2F)CS1(=O)=O` [Example 2], the Ki by setting is: (BACE1 Ki (nM), Ki calculated from IC50 using the Cheng-Prusoff equation) under 5 nM; under setting [1], 0.9 nM.

Turning to `C[C@@]1(c2cc(NC(=O)c3ccc(F)cn3)ccc2F)CS(=O)(=O)[C@](C)(CC2CC2)C(=N)N1` [Example 9dh-b], the Ki under setting [1] is 47.4 nM.

As to `C[C@@]1(c2cc(N)ccc2F)CS(=O)(=O)[C@@](C)(c2cccc(F)c2)C(=N)N1` [Entry 60], the inhibition constant Ki (read-out: BACE1 inhibition, Ki) was determined as 1100 nM.

As for `CC1(C)C(=N)N[C@](C)(c2cc(NC(=O)c3ccn(C(F)F)n3)ccc2F)CS1(=O)=O` [Example 9j], the inhibition constant Ki under setting [1] was 0.6 nM.

Turning to `CC1(C)C(=N)N[C@](C)(c2sc(C(=O)NCc3ncc(F)cc3Cl)cc2Cl)CS1(=O)=O` [Example 22o], the Ki under setting [1] is 1180 nM.

Turning to `C[C@@]1(c2ccccn2)C(=N)N[C@](C)(c2sc(-c3cccc(C#N)c3)cc2F)CS1(=O)=O` [Example 27bo-b], the inhibition constant Ki (read-out: BACE1 Ki) was found to be 2720 nM.

Turning to `C[C@@]1(c2cc(NC(=O)c3ccc(F)cn3)ccc2F)CS(=O)(=O)[C@@](C)(c2cc(C(F)(F)F)ccn2)C(=N)N1` [Example 9ed-a], the Ki under setting [1] was 1.6 nM.

Take `CC1(C)C(=N)N[C@](C)(c2sc(C(=O)NCc3ccc(F)cc3)cc2Cl)CS1(=O)=O` [Example 22j]: the Ki under setting [1] was 753 nM.

For the compound `C[C@@]1(c2cc(N)ccc2F)CS(=O)(=O)[C@](C)(CC(F)(F)F)C(=N)N1` [Entry 36], under setting [2], the inhibition at 10 µM came out at 37%.

On to `CC1(C)C(=N)N[C@](C)(c2cc(NC(=O)c3ncc(Cl)cc3Cl)ccc2F)CS1(=O)=O` [Example 9], for which the inhibition constant (Ki) under setting [1] is under 0.5 nM.
